Source: patent US20220363681A1, “OXO SIX-MEMBERED CYCLOPYRIMIDINE COMPOUND, PREPARATION METHOD AND MEDICAL USE THEREOF” (GenFleet Therapeutics (Shanghai) Inc., priority 2019, published 2022)

Legend:
[1] = tested on: A549 cells (Kras G12S mutation); experiment: Cell proliferation inhibition experiment, 3D cell model, CellTiter-Glo (A549); assay type: cell-based, human; conditions: A549, 2% FBS F-12K, 384-well sphere plate, cultured 5 days with compound
Procedure: (§1) NCI-H358 was a human non-small cell lung cancer cell line with Kras G12C mutation, cultured in 10% FBS RPMI-1640 medium; A549 was a human lung adenocarcinoma cell line with Kras G12S mutation, cultured in 10% FBS F-12K medium. The cells in the logarithmic growth phase was taken, digested with trypsin EDTA, collected and counted, and H358 was adjusted to 1.8E4 cells/ml using 2% FBS RPMI-1640 medium, and A549 was adjusted to 8.9E3 cells/ml using 2% FBS F-12K medium; 800 (45 μl) H358 or 400 (45 μl) A549 cells were seeded in a 384-well sphere plate respectively, cultured overnight to establish a 3D cell model. DMSO was used to prepare 1000× compound 3.16-fold gradient concentration stock solution, and 2% FBS medium was used to dilute 100-fold to 10× compound stock solution. On the second day after cell seeding, 5 μl 10× compound stock solution was added to each cell culture well, the final concentration was 1×, and DMSO content was 0.1%. DMSO was used as the experimental control (control) and 2% FBS medium as the blank control (blank). After the compound and cells were added and cultured for 5 days, 25 μl CellTiter-Glo working solution was added to each well, mixed at 400 rpm and incubated for 30 minutes. After standing 30 minutes at room temperature, 40 μl of the mixture was transfered to a 384-well plate with a non-transparent white bottom, the luminescence chemiluminescence value was read, and the cells proliferation inhibition rate IR (%)=(RLU control-RLU compound)/(RLU control-RLU blank)×100% was calculated, Prism 6 four-parameter method was used to fit the compound's gradient dilution concentration and the corresponding cell proliferation inhibition rate, and the IC50 value was calculated.

[2] = tested on: Kras G12C mutant NCI-H358 cells; experiment: Cell proliferation inhibition experiment, 3D cell model, CellTiter-Glo (H358); assay type: cell-based, human; conditions: NCI-H358, 2% FBS RPMI-1640, 384-well sphere plate, cultured 5 days with compound
Procedure: as §1

Row | Compound | IC50 [1] [µM] | IC50 [2] [µM] | IC50 ([1]; Homo sapiens, A549, 120 h) [µM] | IC50 ([2]; Homo sapiens, NCI-H358, 120 h) [µM]
1 | C=CC(=O)N1CCN(c2nc(OC3CCN(C)CC3)nc3c(OC4CC4)c(-c4c(C)ccc5[nH]ncc45)c(Cl)cc23)CC1 (single isomer, unassigned) [Compound Z12B] | > 5 | 0.39 | – | –
2 | C=CC(=O)N1CCN(c2nc(OC3CCN(C)CC3)nc3c(OC4CCOCC4)c(-c4c(C)ccc5[nH]ncc45)c(Cl)cc23)CC1 [Compound Z2, 1-(4-(6-chloro-7-(5-methyl-1H-indazol-4-yl)-2-((1-methylpiperidin-4-yl)oxy)-8-((tetrahydro-2H-pyran-4-yl)oxy)quinazolin-4-yl)piperazin-1-yl)prop-2-en-1-one] | – | – | > 1 | 0.126
3 | C=CC(=O)N1CCN(c2nc(OC3CCN(C)CC3)nc3c(OC4CC4)c(-c4c(C)ccc5[nH]ncc45)c(Cl)cc23)CC1 (single isomer, unassigned) [Compound Z12A] | > 1 | 0.009 | – | –
4 | C=CC(=O)N1CCN(c2nc(OC[C@@H]3CCCN3C)nc3c(OC4CC(F)(F)C4)c(-c4c(C)ccc5[nH]ncc45)c(Cl)cc23)C[C@@H]1CC#N [Compound Z6, 2-((2S)-1-acryloyl-4-(6-chloro-8-(3,3-difluorocyclobutoxy)-7-(5-methyl-1H-indazol-4-yl)-2-(((S)-1-methylpyrrolidin-2-yl)methoxy)quinazolin-4-yl)piperazin-2-yl) acetonitrile] | – | – | > 5 | 0.139
5 | C=CC(=O)N1CCN(c2nc(O[C@H]3CCN(C)C3)nc3c(OC4CC4)c(-c4c(C)ccc5[nH]ncc45)c(Cl)cc23)CC1 (single isomer, unassigned) [Compound Z40A] | > 30 | 0.012 | – | –
6 | C=CC(=O)N1CCN(c2nc(O[C@H]3CCN(C)C3)nc3c(OC4CC4)c(-c4c(C)ccc5[nH]ncc45)c(Cl)cc23)CC1 [Compound Z40] | > 1 | 0.025 | – | –
7 | C=CC(=O)N1CCN(c2nc(OC[C@@H]3CCCN3C)nc3c(OC4CC4)c(-c4c(C)ccc5[nH]ncc45)c(Cl)cc23)C[C@@H]1C [Compound Z29, 1-((2S)-4-(6-chloro-8-cyclopropoxy-7-(5-methyl-1H-indazol-4-yl)-2-((((S)-1-methylpyrrolidin-2-yl))methoxy)quinazolin-4-yl)-2-methylpiperazin-1-yl)prop-2-en-1-one] | – | – | > 10 | 0.051
8 | C=CC(=O)N1CCN(c2nc(O[C@@H]3CCN(C)C3)nc3c(OC4CC4)c(-c4c(C)ccc5[nH]ncc45)c(Cl)cc23)CC1 [Compound Z39] | – | – | > 5 | 0.021
9 | C=CC(=O)N1[C@@H]2CC[C@H]1CN(c1nc(OC[C@@H]3CCCN3C)nc3c(OC4CC4)c(-c4c(C)ccc5[nH]ncc45)c(Cl)cc13)C2 [Compound Z42, 1-((1R, 5S)-3-(6-chloro-8-cyclopropoxy-7-(5-methyl-1H-indazol-4-yl)-2-(((S)-1-methylpyrrolidin-2-yl)methoxy)quinazolin-4-yl)-3,8-diazabicyclo[3.2.1]octane-8-yl)prop-2-en-1-one] | – | – | > 30 | 0.331
10 | C=CC(=O)N1CCN(c2nc(OC[C@@H]3CCCN3C)nc3c(OC4CC4)c(-c4c(C)ccc5[nH]ncc45)c(Cl)cc23)[C@@H](C)C1 [Compound Z28, 1-((3S)-4-(6-chloro-8-cyclopropoxy-7-(5-methyl-1H-indazol-4-yl)-2-(((S)-1-methylpyrrolidin-2-yl)methoxy)quinazolin-4-yl)-3-methylpiperazin-1-yl)prop-2-en-1-one] | – | – | > 1 | 0.011
11 | C=CC(=O)N1CCN(c2nc(OC3CCN(C)C3)nc3c(OC4CC4)c(-c4c(C)ccc5[nH]ncc45)c(Cl)cc23)CC1 (stereo not shown) [Compound Z32] | – | – | > 1 | 0.02
12 | C=CC(=O)N1CCN(c2nc(N3CC(N(C)C)C3)nc3c(OC4CC4)c(-c4c(C)ccc5[nH]ncc45)c(Cl)cc23)CC1 [Compound Z33, 1-(4-(6-chloro-8-cyclopropoxy-2-(3-(dimethylamino)azetidine-1-yl)-7-(5-methyl-1H-indazol-4-yl)quinazolin-4-yl)piperazin-1-yl)prop-2-en-1-one] | – | – | > 5 | 0.039
13 | C=CC(=O)N1CCN(c2nc(N3CCC(N(C)C)CC3)nc3c(OC4CC4)c(-c4c(C)ccc5[nH]ncc45)c(Cl)cc23)CC1 [Compound Z34, 1-(4-(6-chloro-8-cyclopropoxy-2-(4-(dimethylamino)piperidin-1-yl)-7-(5-methyl-1H-indazol-4-yl)quinazolin-4-yl)piperazin-1-yl)prop-2-en-1-one] | – | – | > 30 | 0.038
14 | C=CC(=O)N1CCN(c2nc(OCCN(C)C)nc3c(OC4CC4)c(-c4c(C)ccc5[nH]ncc45)c(Cl)cc23)CC1 [Compound Z36] | – | – | > 30 | 0.016
15 | C=CC(=O)N1CCN(c2nc(OC[C@@H]3CCCN3C)nc3c(OC4CC4)c(-c4c(C)ccc5[nH]ncc45)c(Cl)cc23)CC1 [Compound Z7, 1-(4-(6-chloro-8-cyclopropoxy-7-(5-methyl-1H-indazol-4-yl)-2-(((S)-1-methylpyrrolidin-2-yl)methoxy)quinazolinpyridin-4-yl)piperazin-1-yl)prop-2-en-1-one] | – | 0.016 | > 1 | –
16 | C=CC(=O)N1CCN(c2nc(OC[C@@H]3CCCN3C)nc3c(OC4CC4)c(-c4c(C)ccc5[nH]ncc45)c(Cl)cc23)CC1CC#N (stereo partly shown) [Compound Z31] | – | – | > 10 | 0.034
17 | C=CC(=O)N1CCN(c2nc(OC[C@@H]3CCCN3C)nc3c(OC4CC4)c(-c4c(C)ccc5[nH]ncc45)c(OC)cc23)CC1 [Compound Z49, 1-(4-(8-cyclopropoxy-6-methoxy-7-(5-methyl-1H-indazol-4-yl)-2-(((S)-1-methylpyrrolidin-2-yl)methoxy)quinazolin-4-yl)piperazin-1-yl)prop-2-en-1-one] | – | – | > 30 | 0.083
18 | C=CC(=O)N1CCN(c2nc(N3CCN(C)CC3)nc3c(OC4CC4)c(-c4c(C)ccc5[nH]ncc45)c(Cl)cc23)CC1 [Compound Z37] | – | – | > 5 | 0.051
19 | C=CC(=O)N1CCN(c2nc(OC[C@@H]3CCCN3C)nc3c(OC4CCOC4)c(-c4c(C)ccc5[nH]ncc45)c(Cl)cc23)CC1 (stereo partly drawn) [Compound Z10A, 1-(4-(6-chloro-7-(5-methyl-1H-indazol-4-yl)-2-(((S)-1-methylpyrrolidin-2-yl)methoxy)-8-((tetrahydrofuran-3-yl)oxy)quinazolin-4-yl)piperazin-1-yl)prop-2-en-1-one] | – | – | > 10 | 0.257
20 | C=CC(=O)N1CCN(c2nc(OC[C@@H]3C[C@H](F)CN3C)nc3c(OC4CC4)c(-c4c(C)ccc5[nH]ncc45)c(Cl)cc23)CC1 [Compound Z45, 1-(4-(6-chloro-8-cyclopropoxy-2-((((2S, 4S)-4-fluoro-1-methylpyrrolidin-2-yl)methoxy)-7]-(5-methyl-1H-indazol-4-yl)quinazolin-4-yl)piperazin-1-yl)prop-2-en-1-one] | – | – | > 30 | 0.018
21 | C=CC(=O)N1CCN(c2nc(OC[C@@H]3CCCN3C)nc3c(OC4CC4)c(-c4c(C)ccc5[nH]ncc45)c(Cl)cc23)CC1 (single isomer, unassigned) [Compound Z7B] | > 1 | 0.006 | – | –
22 | C=CC(=O)N1CCN(c2nc(OC3CCN(C)CC3)nc3c(OC4CC4)c(-c4c(C)ccc5[nH]ncc45)c(Cl)cc23)CC1 [Compound Z12, 1-(4-(6-chloro-8-cyclopropoxy-7-(5-methyl-1H-indazol-4-yl)-2-((1-methylpiperidin-4-yl)oxy)quinazolin-4-yl)piperazin-1-yl)prop-2-en-1-one] | > 10 | 0.018 | – | –
23 | C=CC(=O)N1CCN(c2nc(OC[C@@H]3C[C@@H](F)CN3C)nc3c(OC4CC4)c(-c4c(C)ccc5[nH]ncc45)c(Cl)cc23)CC1 [Compound Z38, 1-(4-(6-chloro-8-cyclopropoxy-2-((((2S, 4R)-4-fluoro-1-methylpyrrolidin-2-yl)methoxy)-7]-(5-methyl-1H-indazol-4-yl)quinazolin-4-yl)piperazin-1-yl)prop-2-en-1-one] | – | – | > 30 | 0.019
24 | C=CC(=O)N1CCN(c2nc(OC[C@@H]3CCCN3C)nc3c(OC4CC4)c(-c4c(O)cccc4F)c(Cl)cc23)CC1 [Compound Z13] | – | – | > 1 | 0.336
25 | C=CC(=O)N1CCN(c2nc(OC[C@@H]3CCCN3C)nc3c(OC4CC(F)(F)C4)c(-c4c(C)ccc5[nH]ncc45)c(Cl)cc23)CC1 [Compound Z4, 1-(4-(6-chloro-8-(3,3-difluorocyclobutoxy)-7-(5-methyl-1H-indazol-4-yl)-2-(((S)-1-methylpyrrolidin-2-yl)methoxy)quinazolin-4-yl)piperazin-1-yl)prop-2-en-1-one] | – | – | > 1 | 0.136
26 | C=CC(=O)N1CCN(c2nc(OC[C@@H]3CCCN3C)nc3c(OC4CC4)c(-c4c(C)ccc5[nH]ncc45)c(OC)cc23)[C@@H](C)C1 (single isomer, unassigned) [Compound Z48B] | – | – | > 10 | 0.01
